Read-outs that look alike come from different tables or passages of the source.
Key:
[1] = test system: PCP-induced hyperactivity in mice; experiment: In vivo efficacy test (PCP-induced high locomotor activity in mice); conditions: male ICR mice, oral administration 45 minutes before PCP 7 mg/kg i.p.; dose significantly reducing PCP-induced hyperactivity vs model group
Protocol: 5) In Vivo Efficacy Test (PCP-Induced High Locomotor Activity in Mice)
PCP solution was prepared in a suitable concentration for 7 mg/kg dosage with saline. […] Male ICR mice (18-22 g) were used as test animals. All the test mice were randomly divided into vehicle control group, model control group, positive control group, and treatment group(8 mice per group). Mice of each group were orally administered test compounds or vehicle. After 45 minutes PCP solution was administered (7 mg/kg) through intraperitoneal injection. The mice track after drug or saline administration was recorded and analyzed by the spontaneous, open-field video analysis system. […] The mice track was recorded and analyzed by the spontaneous, open-field video analysis system. The total distance in each group was calculate and expressed as mean+SD and statistical evaluation was performed by one way ANOVA.

[2] = biological target: human recombinant 5-HT2A receptor (Homo sapiens (Human), UniProt P28223); experiment: 5-HT2A receptor antagonism activity test (FLIPR Calcium 5 Assay Kit); conditions: read-out: 5-HT2A receptor antagonism (IC50, mol/L)
Chain of human recombinant 5-HT2A receptor (P28223 whole entry): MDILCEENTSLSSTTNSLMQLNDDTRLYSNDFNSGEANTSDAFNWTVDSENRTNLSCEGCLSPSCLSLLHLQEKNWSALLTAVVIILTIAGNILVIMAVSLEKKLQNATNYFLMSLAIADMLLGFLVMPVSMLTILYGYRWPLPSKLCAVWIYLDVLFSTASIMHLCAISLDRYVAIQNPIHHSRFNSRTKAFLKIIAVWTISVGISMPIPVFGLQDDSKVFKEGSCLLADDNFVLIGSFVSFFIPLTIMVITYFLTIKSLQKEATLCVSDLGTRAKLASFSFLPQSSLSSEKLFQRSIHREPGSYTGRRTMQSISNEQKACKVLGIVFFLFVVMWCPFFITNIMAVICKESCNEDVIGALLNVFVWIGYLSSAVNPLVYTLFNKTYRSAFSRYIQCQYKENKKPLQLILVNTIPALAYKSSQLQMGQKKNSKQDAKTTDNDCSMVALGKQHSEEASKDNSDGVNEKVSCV

[3] = biological target: human recombinant D2 receptor (Homo sapiens (Human), UniProt P14416); experiment: D2 receptor antagonism activity test (inhibition of dopamine-induced decrease of cAMP production, LANCE cAMP 384 Kit); conditions: read-out: D2 receptor antagonism (IC50, mol/L), HEK293 cells expressing human recombinant D2 receptor, 0.1 nM-10000 nM
Chain of human recombinant D2 receptor (P14416 whole entry): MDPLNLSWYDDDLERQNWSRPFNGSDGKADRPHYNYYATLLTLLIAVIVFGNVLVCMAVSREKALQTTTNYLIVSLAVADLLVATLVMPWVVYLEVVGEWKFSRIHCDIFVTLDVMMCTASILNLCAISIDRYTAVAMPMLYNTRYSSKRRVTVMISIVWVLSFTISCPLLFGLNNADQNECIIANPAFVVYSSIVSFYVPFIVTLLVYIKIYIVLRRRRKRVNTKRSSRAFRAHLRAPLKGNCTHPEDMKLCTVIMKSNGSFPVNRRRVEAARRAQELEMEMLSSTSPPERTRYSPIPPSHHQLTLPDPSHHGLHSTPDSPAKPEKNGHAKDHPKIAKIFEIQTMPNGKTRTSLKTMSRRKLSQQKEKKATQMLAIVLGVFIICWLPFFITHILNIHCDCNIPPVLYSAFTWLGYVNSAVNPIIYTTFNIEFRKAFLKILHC

[4] = biological target: human recombinant 5-HT1A receptor (Homo sapiens (Human), UniProt P08908); experiment: 5-HT1A receptor agonism activity test (inhibition of cAMP production, LANCE cAMP 384 Kit); type: cell-based; conditions: HEK293 cells expressing human recombinant 5-HT1A receptor; test concentration 0.1 nM-10000 nM; read-out: 5-HT1A receptor agonism (EC50, mol/L)
Chain of human recombinant 5-HT1A receptor (P08908 whole entry): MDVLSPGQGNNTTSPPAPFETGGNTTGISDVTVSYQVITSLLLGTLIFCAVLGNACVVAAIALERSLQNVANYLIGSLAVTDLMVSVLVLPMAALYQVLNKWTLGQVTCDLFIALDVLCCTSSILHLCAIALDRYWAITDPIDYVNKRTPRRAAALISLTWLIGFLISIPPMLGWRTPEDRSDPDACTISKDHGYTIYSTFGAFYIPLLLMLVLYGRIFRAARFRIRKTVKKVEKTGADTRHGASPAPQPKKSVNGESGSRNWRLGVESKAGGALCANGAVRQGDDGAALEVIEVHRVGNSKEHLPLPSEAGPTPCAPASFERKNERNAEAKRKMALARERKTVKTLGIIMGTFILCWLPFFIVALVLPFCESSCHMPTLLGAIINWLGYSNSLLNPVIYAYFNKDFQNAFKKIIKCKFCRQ
Description: Pharmacological Test 1) 5-HT1A Receptor Agonism Activity Test

[5] = CHO-K1 cells expressing human recombinant 5-HT2A receptor, α-methyl-5-hydroxytryptamine 300 nM, 0.1 nM-10000 nM

| SMILES | Effective dose [1] [mg/kg] | IC50 [2] [nM] | IC50 [3] [nM] | IC50 [2, 5] [nM] | EC50 [4] [nM] |
| --- | --- | --- | --- | --- | --- |
| O=C1Cc2cc(CCN3CCN(c4cccc5sccc45)CC3)ccc2N1 [Compound of example 8, 5-(2-(4-(benzo[b]thiophen-4-yl)piperazin-1-yl)ethyl)indolin-2-one] | 0.1 to 0.3 | – | – | – | – |
| Cl.O=C1Cc2cc(CCN3CCN(c4cccc5sccc45)CC3)c(Cl)cc2N1 [Compound of example 15, 5-(2-(4-(benzo[b]thiophen-4-yl)piperazin-1-yl)ethyl)-6-chloroindolin-2-one hydrochloride] | 0.1 to 1 | – | – | – | – |
| O=c1[nH]c2ccc(CCN3CCN(c4cccc5sccc45)CC3)cc2[nH]1 [Compound of example 27, 5-(2-(4-(benzo[b]thiophen-4-yl)piperazin-1-yl)ethyl)-1H-benzo[d]imidazol-2(3H)-one] | 0.3 | – | – | – | – |
| Cl.O=c1[nH]c2ccc(CCN3CCN(c4cccc5sccc45)CC3)cc2s1 [Compound of example 29, 6-(2-(4-(benzo[b]thiophen-4-yl)piperazin-1-yl)ethyl)benzo[d]thiazol-2(3H)-one hydrochloride] | 0.3 | – | – | – | – |
| Cl.O=C1COc2ccc(CCN3CCN(c4cccc5sccc45)CC3)cc2N1 [Compound of example 30, 6-(2-(4-(benzo[b]thiophen-4-yl)piperazin-1-yl)ethyl)-2H-benzo[b][1,4]oxazin-3(4H)-one hydrochloride] | 0.3 | 42.1 | 34.2 | – | – |
| c1ccc2c(CCN3CCN(c4cccc5sccc45)CC3)c[nH]c2c1 [Compound of example 46, 3-(2-(4-(benzo[b]thiophen-4-yl)piperazin-1-yl)ethyl)-1H-indole] | 1 | – | – | – | – |
| Cl.O=C1CCc2cc(CCN3CCN(c4cccc5sccc45)CC3)ccc2N1 [Compound of example 47, 6-(2-(4-(benzo[b]thiophen-4-yl)piperazin-1-yl)ethyl)-3,4-dihydroquinolin-2(1H)-one hydrochloride] | 0.3 | – | – | – | – |
| Cl.O=C1CCCc2cc(CCN3CCN(c4cccc5sccc45)CC3)ccc2N1 [Compound of example 49, 7-(2-(4-(benzo[b]thiophen-4-yl)piperazin-1-yl)ethyl)-4,5-dihydro-1H-benzo[b]azepin-2(3H)-one hydrochloride] | 1 | – | – | – | – |
| CN1Cc2cc(CCN3CCN(c4cccc5sccc45)CC3)ccc2NC1=O [Compound of example 51, 6-(2-(4-(benzo[b]thiophen-4-yl)piperazin-1-yl)ethyl)-3-methyl-3,4-dihydroquinazolin-2(1H)-one] | 1 | – | – | – | – |
| Cl.O=c1ccc2ccc(CCN3CCN(c4cccc5sc(F)cc45)CC3)cc2[nH]1 [Compound of example 57, 7-(2-(4-(2-fluorobenzo[b]thiophen-4-yl)piperazin-1-yl)ethyl)quinolin-2(1H)-one hydrochloride] | 1 | – | 8.4 | – | – |
| c1cc(N2CCN(CCc3ccc4ncsc4c3)CC2)c2ccsc2c1 [Compound of example 59, 6-(2-(4-(benzo[b]thiophen-4-yl)piperazin-1-yl)ethyl)benzo[d]thiazole] | 0.3 | – | – | – | – |
| O=c1[nH]c2ccc(CCN3CCN(c4cccc5sccc45)CC3)cc2o1 [Compound of example 68, 6-(2-(4-(benzo[b]thiophen-4-yl)piperazin-1-yl)ethyl)benzo[d]oxazol-2(3H)-one] | 0.3 | 4.82 | – | – | – |
| O=c1ccc2ccc(CCCCCN3CCN(c4cc(F)cc5sccc45)CC3)cc2[nH]1 [Compound of example 71, 7-(5-(4-(6-fluorobenzo[b]thiophen-4-yl)piperazin-1-yl)pentyl)quinolin-2(1H)-one] | 3 | – | – | – | – |
| Cl.Cn1c(=O)n(C)c2cc(CCN3CCN(c4cccc5sccc45)CC3)ccc21 [Compound of example 87, 5-(2-(4-(benzo[b]thiophen-4-yl)piperazin-1-yl)ethyl)-1,3-dimethyl-1H-benzo[d]imidazol-2(3H)-one hydrochloride] | 1 | – | – | 88 | 4.5 |
| O=C1Cc2cc(CCN3CCN(c4cccc5sc(F)cc45)CC3)c(Cl)cc2N1 [Compound of example 113, 6-chloro-5-(2-(4-(2-fluorobenzo[b]thiophen-4-yl)piperazin-1-yl)ethyl)indolin-2-one] | – | – | 61 | 716 | 9.09 |
| CN1C(=O)COc2ccc(CCN3CCN(c4cccc5sccc45)CC3)cc21 [Compound of example 114, 6-(2-(4-(benzo[b]thiophen-4-yl)piperazin-1-yl)ethyl)-4-methyl-2H-benzo[b][1,4]oxazin-3(4H)-one] | – | – | 26.9 | 461 | 8.08 |
| CN1C(=O)CCc2ccc(CCN3CCN(c4cccc5sccc45)CC3)cc21 [Compound of example 115, 7-(2-(4-(benzo[b]thiophen-4-yl)piperazin-1-yl)ethyl)-1-methyl-3,4-dihydroquinolin-2(1H)-one] | – | 53.7 | 29.3 | – | 8.52 |
| CC(=O)Nc1nc2cc(CCN3CCN(c4cccc5sccc45)CC3)ccc2s1 [Compound of example 118, N-(5-(2-(4-(benzo[b]thiophen-4-yl)piperazin-1-yl)ethyl)benzo[d]thiazol-2-yl)acetamide] | – | – | 119 | 75 | 0.602 |
| CC(=O)Nc1nc2cccc(CCN3CCN(c4cccc5sccc45)CC3)c2s1 [Compound of example 119, N-(7-(2-(4-(benzo[b]thiophen-4-yl)piperazin-1-yl)ethyl)benzo[d]thiazol-2-yl)acetamide] | – | – | 4.69 | 34.3 | 0.787 |
| CC(=O)Nc1nc2c(CCN3CCN(c4cccc5sccc45)CC3)cccc2s1 [Compound of example 121, N-(4-(2-(4-(benzo[b]thiophen-4-yl)piperazin-1-yl)ethyl)benzo[d]thiazol-2-yl)acetamide] | – | – | 216 | 41 | 32 |
| CC(=O)N1CC(CCN2CCN(c3cccc4sccc34)CC2)c2ccccc21.Cl (stereo not drawn) [Compound of example 124, 1-(3-(2-(4-(benzo[b]thiophen-4-yl)piperazin-1-yl)ethyl)indolin-1-yl)ethanone hydrochloride] | 3 | – | – | – | – |
| Cl.S=C1CCc2ccc(CCN3CCN(c4cccc5sccc45)CC3)cc2N1 [Compound of example 133, 7-(2-(4-(benzo[b]thiophen-4-yl)piperazin-1-yl)ethyl)-3,4-dihydroquinoline-2(1H)-thione hydrochloride] | 1 | – | 10.9 | – | – |
| O=C1N[C@@H]2[C@@H](CS[C@@H]2CCCCCN2CCN(c3cccc4sccc34)CC2)N1 [Compound of example 134, (3aR,4R,6aS)-4-(5-(4-(benzo[b]thiophen-4-yl)piperazin-1-yl)pentyl)tetrahydro-1H-thieno[3,4-d]imidazol-2(3H)-one] | – | – | 37.9 | 16.7 | 0.75 |
| O=C1COc2c(F)cc(CCN3CCN(c4cccc5sccc45)CC3)cc2N1 [Compound of example 139, 6-(2-(4-(benzo[b]thiophen-4-yl)piperazin-1-yl)ethyl)-8-fluoro-2H-benzo[b][1,4]oxazin-3(4H)-one] | – | – | 79.6 | 104 | 0.766 |
| COC(CN1CCN(c2cccc3sccc23)CC1)c1cccc2c1OCC(=O)N2 (stereo not drawn) [Compound of example 144, 8-(2-(4-(benzo[b]thiophen-4-yl)piperazin-1-yl)-1-methoxyethyl)-2H-benzo[b][1,4]oxazin-3(4H)-one] | – | 17 | 65.8 | – | 8.93 |
| O=C1Cc2cc(C(O)CN3CCN(c4cccc5sccc45)CC3)ccc2N1 (stereo not drawn) [Compound of example 145, 5-(2-(4-(benzo[b]thiophen-4-yl)piperazin-1-yl)-1-hydroxyethyl)indolin-2-one] | – | – | 192 | 14.7 | 6.3 |
| O=C1CCc2ccc(C(O)CCCCN3CCN(c4cccc5sccc45)CC3)cc2N1 (stereo not drawn) [Compound of example 150, 7-(5-(4-(benzo[b]thiophen-4-yl)piperazin-1-yl)-1-hydroxypentyl)-3,4-dihydroquinolin-2(1H)-one] | – | – | 4.54 | 108 | 15.7 |
| CC(=O)Nc1nc2ccc(CCN3CCN(c4cccc5sccc45)CC3)cc2s1 [Compound of example 153, N-(6-(2-(4-(benzo[b]thiophen-4-yl)piperazin-1-yl)ethyl)benzo[d]thiazol-2-yl)acetamide] | – | – | 3.8 | 18.9 | 2.35 |
| O=C1CCc2ccc(OCCCCN3CCN(c4cccc(Cl)c4Cl)CC3)cc2N1 [aripiprazole, reference compound] | 3 | – | – | – | – |

Source: US10174011B2, “Heterocyclic compounds, process for preparation of the same and use thereof” (SHANGHAI INSTITUTE OF MATERIA MEDICA, CHINESE ACADEMY OF …, priority 2014, dated 2019)
